Literature values in US20130023494A1, “MODULATORS OF THE GPR119 RECEPTOR AND THE TREATMENT OF DISORDERS RELATED THERETO” (ARENA PHARMACEUTICALS, INC., priority 2010, published 2013).

Key:
GPR119 = settings: combined administration with a DPP-IV inhibitor, compared with either agent alone; cited from earlier work
[1] = system: human patients suffering with type 2 diabetes; settings: oral administration, human patients with type 2 diabetes; cited from earlier work
humans = settings: cited from earlier work

Q: With CC(C)c1noc(C2CCN(c3ncnc(Nc4ccc(S(C)(=O)=O)cc4F)c3[N+](=O)[O-])CC2)n1 [Compound B111, (2-Fluoro-4-methanesulfonyl-phenyl)-{6-[4-(3-isopropyl-[1,2,4]oxadiazol-5-yl)-piperidin-1-yl]-5-nitro-pyrimidin-4-yl}-amine] as the molecule, how does the glucose tolerance (GPR119) read?
A: improved glucose tolerance to a significantly greater degree than either agent alone

Q: And the “plasma GLP-1 levels” value (GPR119)?
A: acutely increased plasma GLP-1 levels

Q: For N[C@@H](CC(=O)N1CCn2c(nnc2C(F)(F)F)C1)Cc1cc(F)c(F)cc1F [sitagliptin, 3(R)-amino-1-[3-(trifluoromethyl)-5,6,7,8-tetrahydro[1,2,4]triazolo[4,3-a]pyrazin-7-yl]-4-(2,4,5-trifluorophenyl)butan-1-one], which “fasting glucose, postprandial glucose excursion and HbA1c levels” value [1] is on record?
A: reduce fasting glucose and postprandial glucose excursion in association with significantly reduced HbA1c levels

Q: For N#C[C@@H]1CCCN1C(=O)CNC12CC3CC(CC(O)(C3)C1)C2 [vildagliptin, 1-[2-(3-hydroxyadamant-1-ylamino)acetyl]pyrrolidine-2(S)-carbonitrile], which “fasting glucose, postprandial glucose excursion and HbA1c levels” value [1] is on record?
A: reduce fasting glucose and postprandial glucose excursion in association with significantly reduced HbA1c levels

Q: For “PYY3-36: generated from PYY1-36 by cleavage of the N-terminal Tyr and Pro residues by dipeptidyl peptidase IV; Y2R selective agonist”, which “reduction of food intake” value (humans; human studies, infusion, over 24 hours) is on record?
A: 33%

Q: And the “time of decline to basal levels” value (humans; human, after infusion)?
A: ≤ 30 min

Q: And the “time to peak serum levels of PYY3-36” value (humans; human, infusion to reach normal postprandial circulatory concentrations)?
A: ≤ 15 min
